Measured values: article PMC7696255, “In-Silico Identified New Natural Sortase A Inhibitors Disrupt S. aureus Biofilm Formation” (International Journal of Molecular Sciences, 2020)
Several values for one entry are separate records, joined by “and”; a condition that tells them apart may be missing. Equal entries are not always repeated. Where two headings read alike, the source gives them in different places.

How the values were obtained:
S. aureus sortase A [1] = biological target: T1, S. aureus sortase A (Staphylococcus aureus, UniProt Q2FV99); test: SrtA enzyme inhibition FRET assay, DABCYL-LPETG-EDANS substrate; assay type: biochemical
T1 construct: purchased AnaSpec AS-72229
Protocol: (§1) The enzymatic reactions were carried out in black, low-binding polystyrene 384 well plates (Greiner Bio-One). […] SrtA was pre-incubated in the reaction buffer with compounds for 1 h at room temperature prior to the addition of the FRET substrate. Assays were performed in 50 µL reactions with 50 ng of S. aureus sortase A and 25 µM of DABCYL-LPETG-EDANS substrate or 1 µM of 5-FAM/QXL^TM 520 substrate. The inhibitory activity of the compounds was determined by monitoring the rise in fluorescence intensity over 24 h at Ex/Em = 336 nm/490 nm for the DABCYL/EDANS substrate and Ex/Em = 490 nm/520 nm for the 5-FAM/QXL 520 substrate on a Tecan Infinite M1000 Pro reader.
(§2) Raw fluorescence data were corrected for autofluorescence before computing percentage inhibition values. These percentage inhibition values were plotted against compound concentration using GraphPad Prism version 8.0 by nonlinear regression analysis using least squares fit method for IC50 determination. Testing was performed twice to ensure reproducibility of results.

S. aureus sortase A [2] = biological target: T1, S. aureus sortase A; test: SrtA enzyme inhibition FRET assay, 5-FAM/QXL 520 substrate; assay type: biochemical
Protocol: as §1, §2

A549 cells = test: Mammalian cell cytotoxicity assay (PrestoBlue); assay type: cell-based, human; details: Homo sapiens, A549, 72 h, read-out: Mammalian cell lines IC50
Protocol: (§3) A549 and HepG2 cells were seeded at 1500 and 2500 cells per well, respectively, in 384-well microplates and incubated at 37 °C in the presence of 5% CO2. The next day, cells were treated with compounds then incubated for an additional 72 h. To assess the cytotoxic effect of the compounds PrestoBlue cell viability reagent (Life Technologies, Carlsbad, CA, USA) was used. After the 72 h incubation with compounds, the 384-well assay plates were incubated with this viability indicator dye for 2 h (A549) and 4 h (HepG2) before fluorescence reading at Ex/Em = 560 nm/590 nm on the Tecan Infinite M1000 Pro reader. Puromycin (data not shown) was used as the positive control against both cell lines. All tests were executed in triplicate on two separate experiments.

HepG2 cells = test: Mammalian cell cytotoxicity assay (PrestoBlue); assay type: cell-based, human; details: Homo sapiens, HepG2, 72 h, read-out: Mammalian cell lines IC50
Protocol: as §3

S. aureus Newman = test: S. aureus whole cell assay (MIC, microbroth dilution); assay type: cell-based, Staphylococcus aureus
Protocol: (§4) Minimum inhibitory concentration (MIC) tests were performed according to procedures of the Clinical Laboratory Standards Institute (CLSI) with minor changes using the microbroth dilution technique in a 384-well setup. Inoculum of each S. aureus strain was prepared by suspending segregated colonies in sterile saline to a 0.5 McFarland standard. An inoculum of 2–8 × 10^5 CFU/mL was incubated with the compounds for 24 h at 37 °C. Gentamicin (data not shown) was incubated in the same manner as the test compounds and served as a positive control. The effect of the compounds on bacterial growth was calculated by quantifying the optical density at 600 nm on a microplate reader (Tecan, Infinite M1000, Salzburg, Austria). Dilutions of the inoculum were cultivated on agar to verify the validity of the inoculum seeding density and absence of contamination. All tests were executed in triplicate during two separate experiments.

S. aureus ATCC 25923 = test: as above; assay type: cell-based, Staphylococcus aureus; details: Staphylococcus aureus, ATCC25923, 24 h
Protocol: as §4

[3] = test system: S. aureus ATCC 33591 (MRSA); test: as above; assay type: cell-based, Staphylococcus aureus; details: 24 h
Protocol: as §4

[4] = test system: S. aureus Newman biofilm formation; test: Biofilm inhibitory assay (crystal violet), biofilm formation; assay type: cell-based, Staphylococcus aureus; details: CV assay; for IC50: biofilm formation, read-out: Biofilm Inhibition IC50
Protocol: (§5) The effectiveness of SrtA inhibitors in reducing biofilm formation and growth was assessed using the crystal violet (CV) biofilm assay with the following modifications. TSB with 2% glucose (TSB without glucose for E. coli) was inoculated with 10^5 CFU/mL of S. aureus and E. coli overnight cultures. A total of 90µl of this cell suspension was then dispensed into 96-well microtiter plates containing 10 µL of different concentrations of the SrtA inhibitors. After 24 h growth at 37 °C the plates were washed with PBS to remove unbound cells and heat fixed at 60 °C for 30 min. Next, the wells were stained with 0.1% crystal violet solution for 15 min at room temperature. At the completion of the incubation plates were washed 3 times with PBS and dried. Then the crystal violet dye from the biofilm was solubilized with 200 µL of DMSO. A total of 100 µL of this solution was then moved to a new microtiter plate for absorbance measurement at 595 nm. For pre-formed biofilm assay, the plates were prepared and incubated as mentioned earlier, without SrtA inhibitors. After 24 h incubation, the culture supernatant was removed gently and biofilm carefully washed with sterile PBS. Next, 10 µL of different concentrations of SrtA inhibitors with 90 µL of TSB with 2% glucose were added carefully into the wells and incubated at 37 °C for 24 h. The amount of crystal violet staining of biofilm was measured as described above. The results were reported as percent inhibition normalized to the wild type control. Two independent experiments were performed in triplicate to ensure reproducibility.

[5] = test system: S. aureus ATCC 33591 (MRSA) biofilm formation; test: as above; assay type: cell-based, Staphylococcus aureus; details: S. aureus ATCC 33591 (MRSA), biofilm formation, read-out: Biofilm Inhibition IC50
Protocol: as §5

[6] = test system: adherence of S. aureus Newman to fibrinogen; test: Fibrinogen binding assay; assay type: cell-based, Staphylococcus aureus; details: for IC50: read-out: Fibrinogen adherence Inhibition IC50; for concentration giving ≥90% prevention of S. aureus Newman adherence to fibrinogen: compared to untreated wildtype strain
Protocol: Fibrinogen binding assay was completed as described but with slight revision. A flat-bottom 96-well plate was covered with fibrinogen protein by adding 50 µL of 20 µg/mL of fibrinogen protein from bovine plasma diluted in saline and incubated at 4 °C for 24 h. The coated plates were gently rinsed twice with PBS and blocked for 60 min with 4% bovine serum albumin (BSA). The plates were then washed 3 times with PBS. For this assay, S. aureus Newman strain was cultivated in TSB at 37 °C to exponential phase (OD600 = 0.5) and then the bacterial culture was incubated with various concentrations of test compound or control for 2.5 h. Then the cells were pelleted by centrifugation at 10,000× g for 10 min, the supernatants were removed and the cell pellets stored at −20 °C. The following day, cell pellets were suspended in PBS and dispersed in 100 μL aliquots to distinct wells of fibrinogen-coated 96-well plates. After 2 h of growth at 37 °C, the bacterial supernatant was discarded and the wells were rinsed gently with 150 µl PBS. Then the bacterial cells were fixed with 2% (v/v) glutaraldehyde and incubated for 30 min at 25 °C. After a wash with PBS, bound cells were stained with 0.1% crystal violet dye for 15 min. Plates were rinsed twice again with PBS, enclosed with aluminum foil, then stored at room temperature to dry overnight. On the next day absorbance was measured at 570 nm. The results were described as the percent of adhesion inhibition normalized to the wild type control. Two independent experiments were performed in triplicate to ensure reproducibility.

[7] = test system: S. aureus Newman pre-formed biofilms; test: Biofilm inhibitory assay (crystal violet), pre-formed biofilms; assay type: cell-based, Staphylococcus aureus; details: pre-formed biofilms, CV assay, read-out: Biofilm Inhibition IC50
Protocol: as §5

T1 sequence (Q2FV99 whole entry): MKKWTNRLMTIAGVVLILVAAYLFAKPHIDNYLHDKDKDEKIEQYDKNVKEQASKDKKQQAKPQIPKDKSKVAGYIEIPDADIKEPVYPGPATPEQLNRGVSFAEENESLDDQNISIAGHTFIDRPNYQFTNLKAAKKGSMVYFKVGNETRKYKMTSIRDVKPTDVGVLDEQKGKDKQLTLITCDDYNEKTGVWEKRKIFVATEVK

**Q.** With `CC(/C=C/[C@@]1(C)[C@H](C)CCC(=O)[C@@H]1C)=C\Cc1c(O)c(Cl)c(C)c(C=O)c1O` [Compound N1321, Ascochlorin] as the molecule, how does the IC50 (S. aureus sortase A [1]; Sortase A IC50, DABCYL-LPETG-EDANS substrate, 4 h) read?
**A.** The IC50 was over 200 µM.

**Q.** What about the IC50 (S. aureus sortase A [2]; Sortase A IC50, 5-FAM/QXL substrate, 10 min) of the same molecule?
**A.** Its IC50 is over 200 µM.

**Q.** `COc1c(C)c2c(c(O)c1C/C=C(\C)CCC(=O)OC1c3cc(O)cc(O)c3C(=O)OC1(C)O)C(=O)OC2` (centres unmarked) [Compound N1871, Antibiotic F 13459] was tested. Which IC50 (S. aureus sortase A [1]) did it give?
**A.** Its IC50 is over 200 µM.

**Q.** What about the IC50 (S. aureus sortase A [2]) of the same molecule?
**A.** Its IC50 is over 200 µM.

**Q.** What does the source list for `COc1ccc(CC(N)C(=O)NC2C(C(=O)O)OC(n3cnc4c(N)ncnc43)C2O)cc1` (centres unmarked) [Compound N2238, Chryscandin]?
**A.** IC50 (S. aureus sortase A [1]): > 200 µM; IC50 (S. aureus sortase A [2]): > 200 µM

**Q.** With `CC1=CC2c3c(cc4oc5cc(C)cc(O)c5c4c3C)OC3(O)C(=O)c4oc5cc(C)cc(O)c5c4C(C)(C1)C23` (centres unmarked) [Compound N2450, Asticolorin B] as the molecule, how does the IC50 (S. aureus sortase A [1]; read-out: Sortase A IC50, DABCYL-LPETG-EDANS substrate, 4 h) read?
**A.** The IC50 was over 200 µM.

**Q.** And the IC50 (S. aureus sortase A [2]; read-out: Sortase A IC50, 5-FAM/QXL substrate, 10 min)?
**A.** Its IC50 is over 200 µM.

**Q.** What does the source list for `COc1cc(/C=C/C(=O)CC(=O)/C=C/c2ccc(O)c(OC)c2)ccc1O` [Curcumin, reference compound]?
**A.** IC50 (A549 cells): 48.2 ± 12.7 µM; IC50 (HepG2 cells): 39.6 ± 5.3 µM; MIC (S. aureus Newman; Staphylococcus aureus, NEWMAN, 24 h): > 200 µM; growth inhibition of S. aureus (S. aureus Newman; at 200 µM, strain not given): did not inhibit the growth; MIC (S. aureus ATCC 25923): > 200 µM; MIC ([3]; Staphylococcus aureus): > 200 µM; concentration giving >90% inhibition of biofilm formation [4]: 174 µM; IC50 ([4]; Staphylococcus aureus, NEWMAN): 51.2 ± 4.4 µM; IC50 [4]: 51 µM; IC50 ([5]; Staphylococcus aureus): > 150 µM; IC50 ([6]; Staphylococcus aureus, NEWMAN): 46.5 ± 6.2 µM; concentration giving ≥90% prevention of S. aureus Newman adherence to fibrinogen [6]: > 170 µM

**Q.** For `O=C(O)c1cc[c]([Hg][OH])cc1` [p-HMB, p-hydroxymercuribenzoic acid, reference compound], which IC50 [7] is on record?
**A.** The IC50 was 43 ± 3.6 µM.

**Q.** And the IC50 (S. aureus sortase A [1]; DABCYL-LPETG-EDANS substrate, 4 h, read-out: Sortase A IC50)?
**A.** Its IC50 is 0.2 ± 0.07 µM.

**Q.** What about the “S. aureus MIC” value [3] of the same molecule?
**A.** Its value is 6.7 ± 1.5 µM.

**Q.** What about the IC50 (S. aureus sortase A [2]; 5-FAM/QXL substrate, 10 min, read-out: Sortase A IC50) of the same molecule?
**A.** The IC50 was 0.18 ± 0.08 µM.

**Q.** And the “concentration giving >90% inhibition of biofilm formation” value [4]?
**A.** The value was 22 µM.

**Q.** What about the IC50 [4] of the same molecule?
**A.** Its IC50 is 11.9 µM and 12 µM.

**Q.** And the IC50 [5]?
**A.** Its IC50 is over 150 µM.

**Q.** And the IC50 ([6]; S. aureus Newman)?
**A.** Its IC50 is 37.4 ± 5.3 µM.

**Q.** And the “concentration giving ≥90% prevention of S. aureus Newman adherence to fibrinogen” value [6]?
**A.** The value was over 170 µM.
